Measured values as given in patent US20250034161A1, “SPIROCYCLIC COMPOUND AS KRAS-G12C INHIBITOR” (Shanghai Euregen Biopharma Co., Ltd., priority 2020, published 2025).

Experiments:
CYP 2C8 = target: T1, CYP 2C8 (Homo sapiens, UniProt P10632); assay: CYP inhibition test, human liver microsomes, CYP2C8
T1 sequence (P10632 1-490): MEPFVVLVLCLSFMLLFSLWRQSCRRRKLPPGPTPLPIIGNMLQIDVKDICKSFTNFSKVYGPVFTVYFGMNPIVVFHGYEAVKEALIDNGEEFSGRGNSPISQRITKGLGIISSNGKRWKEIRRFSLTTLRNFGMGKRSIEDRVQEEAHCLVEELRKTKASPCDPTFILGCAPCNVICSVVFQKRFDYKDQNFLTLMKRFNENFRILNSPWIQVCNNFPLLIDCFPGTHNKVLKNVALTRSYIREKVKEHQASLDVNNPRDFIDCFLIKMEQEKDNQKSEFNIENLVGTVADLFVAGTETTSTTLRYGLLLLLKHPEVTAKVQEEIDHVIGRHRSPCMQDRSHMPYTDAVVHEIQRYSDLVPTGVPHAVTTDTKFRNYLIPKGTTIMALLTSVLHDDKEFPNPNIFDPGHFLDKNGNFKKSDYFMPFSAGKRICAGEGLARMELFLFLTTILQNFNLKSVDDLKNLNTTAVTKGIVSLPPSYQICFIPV
Description: • 1. Test purpose: to evaluate the inhibitory ability of some of the example compounds of the present invention against CYP1A2, 2B6, 2C8, 2C9, 2C19, 2D6 and 3A4 via human liver microsomes. • 2. […] Test method:
• 1. K/Mg buffer: the components were 0.1 mol/L potassium phosphate and 5 mmol/L magnesium chloride with pH 7.4±0.1, preheated. • 2. Solution of the test compound: the test compound was dissolved in dimethyl sulfoxide to prepare a stock solution of 10 mmol/L. 8 μL of 10 mmol/L stock solution was transferred to a 96-well plate containing 12 μL of acetonitrile as the highest concentration point, at 3-fold dilution, for 8 concentrations. • 3. NADPH solution: 66.7 mg of NADPH was dissolved in 10 mL of 0.1 mol/L K/Mg buffer to obtain 8 mmol/L NADPH solution with pH 7.4. • 4. Human liver microsomal stock solution: human liver microsomes were dissolved in 0.1 mol/L K/Mg buffer to obtain 20 mg/mL stock solution. • 5. Human liver microsomal working solution: 10 μL of 20 mg/mL human liver microsomal stock solution was taken and added into 990 μL of 0.1 mol/L K/Mg buffer to prepare 0.2 mg/mL human liver microsomal solution. • 6. […]

[1] = Plasma protein binding assay (equilibrium dialysis), human plasma; format: in vitro ADME; conditions: pH 7.4, equilibrium dialysis 5 hours, read-out: Plasma protein binding rate (%) (converted)
Description: • 1. Test purpose: to evaluate the protein binding rate of the test compound in human, dog, monkey, rat and mouse plasma by equilibrium dialysis; • 2. […] Experimental methods: • 0.1 mol/L sodium phosphate and 0.15 mol/L sodium chloride buffer with pH 7.4±0.1 was preheated;
Preparation of plasma containing test substance: the test compound was dissolved in DMSO to prepare a 10 mmol/l stock solution. 5 μL of stock solution was taken and diluted with 95 μL of acetonitrile to obtain solution A (0.5 mmol/L). 8 μL of solution A was taken and diluted with 192 μL of 0.1 mol/L sodium phosphate buffer to obtain solution B (0.02 mmol/L). 570 μL of plasma was added into a 96-well plate followed by the addition of 30 μL of solution B. The final concentration was 1 μmol/L with 0.01% DMSO.
The plate was shook at 600 rpm for 10 minutes, covered and stored in a freezer (−20° C.).
T5 sample preparation (in triplicate): the dialysis device was added with 100 μL of buffer on its receiver side and 100 μL of plasma containing the test compound on its doner side. And the dialysis device was then shook at 37° C. and 120 rpm for 5 hours. At the end of culture, 25 μL of plasma containing the test substance was taken from the plasma side and then added to a 96-well plate, followed by the addition of 25 μL of buffer and 200 μL of acetonitrile solution containing internal standard. […]

Compound | IC50 (CYP 2C8) | fraction unbound at 5 h, 1 μmol/L [1]
C=CC(=O)N1CCN(c2nc(=O)n(-c3c(C)ccnc3C(C)C)c3nc(-c4c(O)cccc4F)c(F)cc23)[C@@H](C)C1 [AMG510] | > 10 µM | 0.075
C=C(F)C(=O)N1CCN(c2nc(OC[C@@H]3CCCN3C)nc3c2CCN(c2cccc4cccc(Cl)c24)C3)C[C@@H]1CC#N [MRTX849] | > 10 µM | 0.018
